Data from PubChem BioAssay (NCI).
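Cultured in 96-well plates, cells were exposed to test compound for 48 hours across five concentrations. At the GI50, growth is halved. TGI marks complete inhibition of growth.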

How the values were obtained:
Test in all cases: growth of human tumour cells (NCI), 48 h
[1] = test system: K-562 leukemia
[2] = test system: CCRF-CEM leukemia
[3] = test system: DU-145 prostate
[4] = test system: HOP-62 NSCLC
[5] = test system: PC-3 prostate
[6] = test system: OVCAR-8 ovarian
[7] = test system: A549 NSCLC
[8] = test system: RPMI-8226 leukemia
[9] = test system: HCT-116 colon
[10] = test system: MDA-MB-231 breast

Structure (SMILES) | GI50 [1] | TGI [1] | GI50 [2] | TGI [2] | GI50 [3] | TGI [3] | GI50 [4] | TGI [4] | GI50 [5] | TGI [5] | GI50 [6] | TGI [6] | GI50 [7] | TGI [7] | GI50 [8] | TGI [8] | GI50 [9] | TGI [9] | GI50 [10] | TGI [10]
CCC(c1ccc(OC)cc1)C(CC)c1ccc(O)c(CN2CCN(C)CC2)c1 (stereo not drawn) | 2710 nM | 14.8 µM | 5.37 µM | 20.4 µM | 11.3 µM | 24.1 µM | 11000 nM | 26.2 µM | 6730 nM | 21.2 µM | 6.35 µM | 21.8 µM | 8.26 µM | 22.8 µM | 2920 nM | 9.5 µM | 3460 nM | 14.5 µM | 3.7 µM | 15.1 µM
Cc1cc(S(=O)(=O)/N=C/N(C)C)c(SC(=O)c2ccc(Cl)cc2)cc1Cl | 46500 nM | > 100 µM | 32.4 µM | > 100 µM | 19.1 µM | > 100 µM | 41800 nM | > 100 µM | 27600 nM | 90.8 µM | 40.9 µM | > 100 µM | 34.1 µM | 85.2 µM | 25400 nM | 80.6 µM | 24100 nM | 59.3 µM | 25.8 µM | 69.9 µM
O=C(O)C1CCCCC1c1c2ccc(=O)c(O)c-2oc2c(O)c(O)ccc12 (stereo not drawn) |  | 60.6 µM |  | 3.11 µM |  | > 100 µM |  | 94.4 µM |  | > 100 µM |  | 88.7 µM |  | 48.6 µM |  | 69.7 µM |  | 28.4 µM |  | 38.1 µM
O=C1C2=C(c3ccccc31)C(c1ccccc1)N1C(=O)CSC1=N2 (stereo not drawn) |  | > 100 µM |  | > 100 µM |  | > 100 µM |  | > 100 µM |  | > 100 µM |  | > 100 µM |  | > 100 µM |  | > 100 µM |  | > 100 µM |  | > 100 µM
COc1cccc2c1-c1c(c3ccc([N+](=O)[O-])cc3c(=O)n1CCCN)C2=O | 218 nM | 1.12 µM | 0.183 µM | 4.76 µM | 1.06 µM | 6.15 µM | 1130 nM | 2.5 µM | 1430 nM | 4.03 µM | 1.5 µM | 5.66 µM | 11 µM | 34.4 µM | 1650 nM | 5.84 µM | 490 nM | 2.25 µM | 1.68 µM | 3.41 µM
N[C@@H]1C(=O)N2C(C(=O)OC(c3ccccc3)c3ccccc3)=C(CCl)CS[C@H]12 | 15400 nM | > 89.2 µM |  | > 61.6 µM | 15 µM | > 100 µM | 63400 nM | > 100 µM | 32400 nM | > 100 µM | 27.3 µM | > 77 µM | > 67.5 µM | > 100 µM | 16800 nM | 50.8 µM | 27100 nM | > 76.6 µM | 25.2 µM | 63.1 µM
ON(Cc1ccccc1)C(=S)c1ccccc1 |  | > 100 µM |  | > 27 µM |  | > 100 µM |  | 42.9 µM |  | > 100 µM |  | > 69.8 µM |  | > 100 µM |  | > 100 µM |  | 51.6 µM |  | > 100 µM
Cc1cc2cc3ccc(N(C)C)cc3nc2cc1N | 418 nM | > 21 µM | 0.772 µM | 10.7 µM | 0.437 µM | 2.45 µM | 481 nM | 2.45 µM | 992 nM | 4.91 µM | 0.374 µM | 2.36 µM | 0.431 µM | 2.61 µM | 637 nM | 5.55 µM | 279 nM | 1.45 µM | 1.12 µM | 2.88 µM
Oc1ccc(-c2nc3ccc4[nH]ncc4c3c3c2CCCC3)c(F)c1 | 2710 nM | 21 µM | 2.05 µM | 11.4 µM | 2.89 µM | 13.2 µM | 1500 nM | 5.47 µM | 2750 nM | 14.8 µM | 1.92 µM | 9.39 µM | 1.17 µM | 6.11 µM | 1800 nM | 10.7 µM | 739 nM | 11 µM | 2.79 µM | 10.5 µM
S=C(Nc1ccc(N=Nc2ccccc2)cc1)SCc1ccccc1 |  | 39.9 µM |  | 36.1 µM |  | 29.6 µM |  | 41.3 µM |  | 30.6 µM |  | 22.5 µM |  | 35.8 µM |  | 33.3 µM |  | 31.9 µM |  | 28.9 µM
COc1cc(OC)c2nccc(NCCCN(C)C)c2c1[N+](=O)[O-] |  | > 100 µM |  | > 100 µM |  | > 100 µM |  | > 100 µM |  | > 100 µM |  | > 100 µM |  | > 100 µM |  | > 100 µM |  | > 100 µM |  | > 100 µM
Cc1cc(Nc2nc(-c3cccnc3)nc3ccccc23)n[nH]1 | 3070 nM | > 100 µM | 4.83 µM | > 100 µM | 10.7 µM | > 100 µM | 2680 nM | > 89.8 µM | 1850 nM | > 100 µM | 9.55 µM | > 100 µM | 0.672 µM | > 100 µM | > 38500 nM | > 95.1 µM | 494 nM | > 100 µM | 17.3 µM | > 100 µM
Cc1ccc(C(NC(=O)c2ccccc2)c2ccc3cccnc3c2O)cc1 (stereo not drawn) | 349 nM | 90 µM | 0.0783 µM |  | 0.442 µM | 41.9 µM | 487 nM | > 41.6 µM | 354 nM | 26.3 µM | 0.306 µM | 25.1 µM | 0.379 µM | 12.7 µM | 323 nM | 17.8 µM | 303 nM | 13.8 µM | 0.315 µM | 22.4 µM
CC(=O)c1c(CN(C)c2ccccc2)n([O-])c2ccccc2[n+]1=O | 28600 nM | > 100 µM | 23 µM | 96.7 µM | 42.1 µM | > 100 µM | 30700 nM | > 100 µM | 11700 nM | 44.3 µM | 43.1 µM | > 100 µM | 47.1 µM | > 100 µM | 13200 nM | 40.9 µM | 27900 nM | > 100 µM | 27.1 µM | > 100 µM
